For one assay, the system named is delta-endotoxin. As to the kind of experiment: Delta-endotoxin level in tissues of field-grown NuCotn 32B after in-furrow aldicarb. Format: in vivo, cotton (NuCotn® 32B). The settings on record: Temik 15G in furrow, about 0.5 kg/ha active ingredient; various points in the growing season. As for the experimental part: Seeds of NuCotn® 32B are planted in a field. Aldicarb, in the form of the commercial product Temik® 15G (a 15% weight/weight granular formulation) is applied in the furrow that comprises the seed at a rate of about 0.5 kg/ha of active ingredient or 3.3 kg/ha of commercial product. At various points in the growing season, the plant tissues are tested for the levels of the delta-endotoxin.

In the next assay the test system is NuCotn® 32B. As to the kind of experiment: Number of bolls on field-grown NuCotn 32B after side-dress aldicarb. Format: in vivo, cotton. Conditions: Temik 15G side-dress 7.8 kg/ha commercial product; after a full growing season. An excerpt:
(§1) Seeds of NuCotn® 32B are planted in a field. Aldicarb, in the form of the commercial product Temik® 15G (a 15% weight/weight granular formulation) is applied as a side-dress at 7.8 kg/ha of commercial product. […] The amount of damage due to bollworm attack on the cotton is less in those treated with aldicarb in comparison to those not treated with aldicarb.

A further assay relates to bollworm. As to the kind of experiment: Bollworm damage on field-grown NuCotn 32B after side-dress aldicarb. Format: in vivo. The settings on record: Temik 15G side-dress 7.8 kg/ha commercial product; after a full growing season.
Description: as §1

Another assay relates to Heliothis virescens. Nature of the assay: Bt cotton tissue incorporated into Heliothis diet, pupation bioassay (EC50P). Format: in vivo. The settings on record: aldicarb at plant, tissue collected after 90 days. How it is done: Cotton leaves and squares were collected from treatments of Bt Cotton wherein the cotton was treated with Temik® 15G under the following conditions;
A) 0.45 lbs active ingredient per acre at plant (0.5 kg/ha)
B) […] active ingredient per acre at plant; […] and
C) 0.75 lbs active ingredient per acre (0.84 kg/ha) at plant and followed 3 weeks later by a side-dress treatment of 1.0 lbs per acre (1.12 kg/ha) of active ingredient.
One planting was not treated with aldicarb.
After 90 days leaves and squares were collected, washed with soap and water, allowed to dry, washed with acetone, allowed to dry and finally washed with chloroform. The tissues were then freeze dried, ground in a mortar and pestle and stored at room temperature.
The cotton tissues were incorporated into a Heliothis diet and fed to Heliothis virescens. The larvae in the cups were weighed at seven days after infestation and the number of pupae were counted 14 and 21 days after infestation. The percent pupation was calculated at the different concentrations and the EC50P (the amount of tissue per liter of diet that reduced pupation by 50%) was calculated for each insecticide treatment to express the amount of toxin activity in the treatment.

Assay [1] has as its system Roundup Ready® Cotton. As to the kind of experiment: Fruiting of Roundup Ready Cotton, insecticide at planting, Roundup at four-leaf stage. Format: in vivo. The settings on record: for % change from UTC (Squares per Plant) / Squares per Plant / % change from UTC (Squares + Bolls) / Squares + Bolls: Roundup at four-leaf stage; for % change from UTC (Squares per Plant) / Squares per Plant: 45 days after Roundup treatment; for % change from UTC (Squares + Bolls) / Squares + Bolls: after 62 days. How it is done: (§2) A plot of Roundup Ready® Cotton (RRC was grown up. One part of the plot was treated with Temik® at a rate of 5.6 kg/ha of commercial product at the time of planting of the seed. Another part was treated with Disyston® (disulfoton) at 22.24 kg of commercial product/ha the time of planting of the seed. Another part of the plot was grown from seed treated with Gauch® (imidactoprid) at a rate of 0.357 kg of commercial product per 100 kg of seed. One part of the plot was left untreated by an insecticide which is called hereafter the untreated check (UTC).
The isopropylamine salt of glyphosate was applied to all the cotton plants at the four-leaf stage in the form of the commercial product Roundup® at a rate of 32 oz of commercial product per acre (=[…] of active ingredient). The following results were observed 45 days after the Roundup® treatment:
After 62 days, many squares had matured to bolls and the following observations were made: […]

Assay [2] deals with Roundup Ready® Cotton. Nature of the assay: Fruiting of Roundup Ready Cotton, insecticide at planting, Roundup at six-leaf stage. Format: in vivo. The settings on record: for % change from UTC (Squares per Plant) / Squares per Plant: 40 days after Roundup treatment; for % change from UTC (Square & Bolls) / Square & Bolls: after 57 days. How it is done: as §2
Roundup Ready® Cotton was grown up as in Example 5 and treated with Roundup at the six-leaf stage.
The following results were observed 40 days after the Roundup® treatment:
After 57 days, many of the square had matured to bolls.

As for `CNC(=O)ON=CC(C)(C)SC` [aldicarb, 2-methyl-2-(methylthio)propionaldehyde O-(methylcarbamoyl)oxime], the “level of the delta-endotoxin in plant tissues vs plants not treated” value in the assay on delta-endotoxin was “higher level of the endotoxin”. The “number of bolls on the plants vs not treated” value in the assay with NuCotn® 32B is listed as “larger number of bolls”. In addition, the “amount of damage due to bollworm attack vs not treated” value in the assay on bollworm is “less”. In the assay on Heliothis virescens (leaf tissue, reading three weeks after infestation), the “amount of tissue to reduce pupation by 50% (EC50P) vs untreated check” value is reported as “higher amounts of tissue”. Moreover, the “amount of tissue to reduce pupation by 50% (EC50P) vs untreated check” value in the assay on Heliothis virescens (leaf tissue, reading two weeks after infestation) is “higher amounts of tissue”. For the same compound, the “amount of tissue to reduce pupation by 50% (EC50P) vs untreated check” value in the assay with Heliothis virescens (square tissue, reading three weeks after infestation) is given as “lesser amounts of tissue”. In addition, in the assay on Heliothis virescens (square tissue, reading two weeks after infestation), the “amount of tissue to reduce pupation by 50% (EC50P) vs untreated check” value is reported as “lesser amounts of tissue”. Moreover, in the assay with Roundup Ready® Cotton [1], the “% change from UTC (Squares per Plant)” value is recorded as “+21%”, the “Squares per Plant” value stood at 9.05, the “% change from UTC (Squares + Bolls)” value was “+18.7%” and the “Squares + Bolls” value is 18.7. The “yield of cotton compared with UTC or cotton treated with other pesticides” value in the assay with Roundup Ready® Cotton [1] (herbicide at the four-leaf stage, summary of Example 5) is on record as “increases the yield of cotton”. For the same compound, in the assay with Roundup Ready® Cotton [2], the “% change from UTC (Squares per Plant)” value was “+23%”, the “Squares per Plant” value was 10.95, the “% change from UTC (Square & Bolls)” value is recorded as “+11%” and the “Square & Bolls” value came to 16.0.
With `CCOP(=S)(OCC)SCCSCC` [disulfoton], in the assay on Roundup Ready® Cotton [1], the “% change from UTC (Squares per Plant)” value is reported as “+2%”, the “Squares per Plant” value came to 7.65, the “% change from UTC (Squares + Bolls)” value was −15.0% and the “Squares + Bolls” value is on record as 12.8. In the assay on Roundup Ready® Cotton [2], the “% change from UTC (Squares per Plant)” value is recorded as −36%, the “Squares per Plant” value was found to be 5.65, the “% change from UTC (Square & Bolls)” value is on record as “+14%” and the “Square & Bolls” value is recorded as 16.5.
Regarding `O=[N+]([O-])N=C1NCCN1Cc1ccc(Cl)nc1` [imidacloprid, 1-(6-chloro-3-pyridylmethyl)-N-nitroimidazolidin-2-ylideneamine], in the assay with Roundup Ready® Cotton [1], the “% change from UTC (Squares per Plant)” value is “+18%”, the “Squares per Plant” value amounted to 8.70, the “% change from UTC (Squares + Bolls)” value is recorded as −0.2% and the “Squares + Bolls” value was found to be 14.8. In the assay with Roundup Ready® Cotton [2], the “% change from UTC (Squares per Plant)” value is given as −14%, the “Squares per Plant” value was determined as 7.60, the “% change from UTC (Square & Bolls)” value is “+14%” and the “Square & Bolls” value is listed as 16.5.

These data come from patent US6407316B1, “Method of increasing foreign protein expression” (priority 1997, dated 2002).
